According to paper PMC10823477 (Journal of Medicinal Chemistry, 2023):
“Also recorded” adds a separate entry of the source.

Experiments:
[1] = plasma pharmacokinetics of psilocin and parent prodrug in healthy mice; conditions: for time up to which parent derivative is detected systemically postdose: plasma parent prodrug; for psilocin AUC(0–tlast) relative to ES02: 10 mg/kg p.o., within first 8 h
5-HT2A receptor = 5-HT2A receptor (Mus musculus, UniProt P35363); test: head-twitch response; assay type: in vivo, C57BL/6 mice; conditions: mice, 1 mg/kg p.o.; for HTR induction, result in words: 15–30 min window
Chain of 5-HT2A receptor (P35363 whole entry): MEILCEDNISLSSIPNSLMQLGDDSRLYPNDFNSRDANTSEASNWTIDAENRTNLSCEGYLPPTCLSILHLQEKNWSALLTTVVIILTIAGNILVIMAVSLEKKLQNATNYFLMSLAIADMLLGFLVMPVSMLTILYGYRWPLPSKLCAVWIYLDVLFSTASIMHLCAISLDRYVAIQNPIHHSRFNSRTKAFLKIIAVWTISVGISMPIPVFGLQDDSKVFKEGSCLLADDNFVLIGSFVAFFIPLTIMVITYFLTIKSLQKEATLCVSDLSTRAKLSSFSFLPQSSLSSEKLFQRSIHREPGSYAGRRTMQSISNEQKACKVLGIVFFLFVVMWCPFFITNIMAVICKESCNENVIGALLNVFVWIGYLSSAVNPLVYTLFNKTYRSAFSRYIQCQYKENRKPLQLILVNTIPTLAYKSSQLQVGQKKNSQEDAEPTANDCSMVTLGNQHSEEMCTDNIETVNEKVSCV

[2] = system: mice subjected to a Mild Chronic Stress Paradigm (MCSP); test: marble-burying test; assay type: in vivo, C57BL/6 mice; conditions: for marble-burying behavior in stressed mice, 1 day postdose, in words / marble-burying behavior in stressed mice, up to 7 days, in words: MCSP mice, single p.o. dose, psilocybin 1 mg/kg, NPDs 10 mg/kg
[3] = humans; cited from earlier work
[4] = human participants, 25 mg psilocybin; cited from earlier work

Structure (SMILES): CN(C)CCc1c[nH]c2cccc(O[Si](C)(C)C(C)(C)C)c12 [SE01, 2-(4-((tert-Butyldimethylsilyl)oxy)-1H-indol-3-yl)-N,N-dimethylethanamine]
- time up to which parent derivative is detected systemically postdose [1]: up to 8 h
- HTR induction, result in words (5-HT2A receptor): induced notable HTR

Structure (SMILES): CN(C)CCc1c[nH]c2cccc(OC(=O)OCC3CC3)c12 [C03, Cyclopropylmethyl (3-(2-(Dimethylamino)ethyl)-1H-indol-4-yl) Carbonate]
- HTR induction, result in words (5-HT2A receptor): appeared not to induce a notable hallucinogenic effect

Structure (SMILES): CN(C)CCc1c[nH]c2cccc(OC(=O)SCc3ccccc3)c12 [T01, S-Benzyl O-(3-(2-(Dimethylamino)ethyl)-1H-indol-4-yl) Carbonothioate]
- psilocin (Cmax) produced relative to psilocybin ([1]; 1 mg/kg i.v., 1 mg/kg): three to five times greater than psilocybin; also recorded: approximately four times greater psilocin relative to the natural prodrug
- psilocin AUC(0–tlast) relative to ES02 [1]: greater than twice that of ES02
- marble-burying behavior in stressed mice, 1 day postdose, in words [2]: significant reduction in marble-burying behavior
- marble-burying behavior in stressed mice, up to 7 days, in words [2]: completely rescuing the elevated anxiety-like condition to the innate behavioral state up to 7 days after treatment
- HTR induction, result in words (5-HT2A receptor; 1 mg/kg): induced notable HTR; also recorded: statistically significant psychomimetic effects in healthy mice

Structure (SMILES): CN(C)CCc1c[nH]c2cccc(OC(=O)c3c(F)c(F)c(F)c(F)c3F)c12 [ES03, 3-(2-(Dimethylamino)ethyl)-1H-indol-4-yl 2,3,4,5,6-pentafluorobenzoate]
- HTR induction, result in words (5-HT2A receptor; 1 mg/kg): induced HTR at an intensity statistically equivalent to the natural psychedelic compound; also recorded: produced HTR responses equivalent to psilocybin

Structure (SMILES): CN(C)CCc1c[nH]c2cccc(OC(=O)CC3CC3)c12 [ES02, 3-(2-(Dimethylamino)ethyl)-1H-indol-4-yl 2-cyclopropylacetate]
- marble-burying behavior in stressed mice, 1 day postdose, in words [2]: significant reduction in marble-burying behavior
- HTR induction, result in words (5-HT2A receptor): induced HTR at an intensity statistically equivalent to the natural psychedelic compound

Structure (SMILES): CCCC(=O)OCOc1cccc2[nH]cc(CCN(C)C)c12 [EE01, ((3-(2-(Dimethylamino)ethyl)-1H-indol-4-yl)oxy)methyl Butyrate]
- HTR induction, result in words (5-HT2A receptor): appeared not to induce a notable hallucinogenic effect

Structure (SMILES): CN(C)CCc1c[nH]c2cccc(OC(=O)c3cccc4c3OCCO4)c12 [ES04, 3-(2-(Dimethylamino)ethyl)-1H-indol-4-yl 2,3-dihydrobenzo[b][1,4]dioxine-5-carboxylate]
- HTR induction, result in words (5-HT2A receptor): appeared not to induce a notable hallucinogenic effect

Structure (SMILES): CN(C)CCc1c[nH]c2cccc(OC(=O)OCc3ccccc3)c12 [C02, Benzyl (3-(2-(Dimethylamino)ethyl)-1H-indol-4-yl) Carbonate]
- HTR induction, result in words (5-HT2A receptor): statistically significant psychomimetic effects in healthy mice

Structure (SMILES): CN(C)CCc1c[nH]c2cccc(OP(=O)(O)O)c12 [PCB, psilocybin, reference compound]
- marble-burying behavior in stressed mice, 1 day postdose, in words [2]: significantly reduced number of buried marbles
- marble-burying behavior in stressed mice, up to 7 days, in words [2]: long-term benefits lasting up to 7 days post-treatment
- effect on innate burying behavior in nonstressed mice ([2]; nonstressed mice, 1 mg/kg p.o.): no significant effect on the innate burying behavior in nonstressed mice
- duration of psychedelic episode from time of dosing [3]: up to 6 h
- duration of systemic psilocin exposure postadministration [4]: up to 24 h
- time of peak plasma psilocin level [4]: 2 h
- duration of statistically enhanced HTR relative to vehicle (5-HT2A receptor): up to 90 min
- observation window of peak HTR intensity (5-HT2A receptor): 15 to 30 min

Structure (SMILES): CN(C)CCc1cn(C(=O)OCc2ccccc2)c2cccc(OC(=O)OCc3ccccc3)c12 [C01, Benzyl 4-(((Benzyloxy)carbonyl)oxy)-3-(2-(dimethylamino)ethyl)-1H-indole-1-carboxylate]
- HTR induction, result in words (5-HT2A receptor): ineffective in inducing HTR

Structure (SMILES): COc1ccc(C(=O)Oc2cccc3[nH]cc(CCN(C)C)c23)cc1 [ES01, 3-(2-(Dimethylamino)ethyl)-1H-indol-4-yl 4-Methoxybenzoate]
- psilocin AUC(0–tlast) relative to ES02 [1]: greater than twice that of ES02
- marble-burying behavior in stressed mice, 1 day postdose, in words [2]: significant reduction in marble-burying behavior
- marble-burying behavior in stressed mice, up to 7 days, in words [2]: completely rescuing the elevated anxiety-like condition to the innate behavioral state up to 7 days after treatment
- HTR induction, result in words (5-HT2A receptor; 1 mg/kg): induced HTR at an intensity statistically equivalent to the natural psychedelic compound; also recorded: produced HTR responses equivalent to psilocybin

Structure (SMILES): CC(C)[Si](Oc1cccc2[nH]cc(CCN(C)C)c12)(C(C)C)C(C)C [SE02, N,N-Dimethyl-2-(4-((triisopropylsilyl)oxy)-1H-indol-3-yl)ethanamine]
- time up to which parent derivative is detected systemically postdose [1]: up to 8 h
- HTR induction, result in words (5-HT2A receptor): induced notable HTR
